Data on 19 compounds can be found in ChEMBL document CHEMBL1141178, “Identification of 4-substituted 1,2,3-triazoles as novel oxazolidinone antibacterial agents with reduced activity against monoamine oxidase A” (J Med Chem, 2005).

A short description of assay [1]: Minimum inhibitory concentration against Haemophilus influenzae ATCC 51907. In kind it is functional.
The test system of the next assay is Staphylococcus aureus. The assay can be described thus: Minimum inhibitory concentration against methicillin susceptible Staphylococcus aureus AP601055. It counts as functional.
Another assay deals with Streptococcus pneumoniae. As to the kind of experiment: Minimum inhibitory concentration against penicillin susceptible Streptococcus pneumoniae AP671401. It counts as functional.
The target in assay [2] is T1, Amine oxidase [flavin-containing] A (Homo sapiens, UniProt P21397).
T1 sequence (P21397 whole entry): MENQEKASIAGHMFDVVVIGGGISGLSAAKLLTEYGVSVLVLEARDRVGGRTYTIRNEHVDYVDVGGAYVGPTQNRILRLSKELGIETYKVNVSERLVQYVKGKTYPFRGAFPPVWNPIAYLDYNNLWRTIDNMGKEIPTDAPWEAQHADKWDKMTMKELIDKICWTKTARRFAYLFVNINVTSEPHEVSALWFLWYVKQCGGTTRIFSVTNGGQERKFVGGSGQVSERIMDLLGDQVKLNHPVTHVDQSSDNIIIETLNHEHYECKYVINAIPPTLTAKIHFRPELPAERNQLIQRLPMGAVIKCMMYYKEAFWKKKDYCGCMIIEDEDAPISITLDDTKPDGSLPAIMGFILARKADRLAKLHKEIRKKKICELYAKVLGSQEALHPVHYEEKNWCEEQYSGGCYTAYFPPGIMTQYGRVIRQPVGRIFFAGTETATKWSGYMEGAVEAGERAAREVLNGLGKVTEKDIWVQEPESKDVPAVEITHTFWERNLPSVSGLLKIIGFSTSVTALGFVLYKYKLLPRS
The assay can be described thus: Binding affinity for human liver monoamine oxidase A.

Broadly, the pKi is the negative decadic logarithm of the Ki, by convention in mol/L.

pKi: −log10 of the molar value. In brackets after ≈: the same amount, converted by molar mass.

Regarding `CCc1cn(C[C@H]2CN(c3ccc(C4=CCS(=O)(=O)CC4)c(F)c3)C(=O)O2)nn1`, the figures for the MIC (in assay [1]; with Staphylococcus aureus; against Streptococcus pneumoniae) were 8 µg/mL (≈ 19 µM), 4 µg/mL (≈ 9.51 µM) and 2 µg/mL (≈ 4.76 µM), respectively. Further, in assay [2], the pKi is below 3.70.

Regarding `O=C1O[C@@H](Cn2cc(C=C(Br)Br)nn2)CN1c1ccc(C2=CCS(=O)(=O)CC2)c(F)c1`, the MIC was above 64 µg/mL in assay [1], above 64 µg/mL against Staphylococcus aureus and 4 µg/mL (≈ 6.94 µM) against Streptococcus pneumoniae. In assay [2], this compound gave a pKi below 4.00.

As for `C#Cc1cn(C[C@H]2CN(c3ccc(C4=CCS(=O)(=O)CC4)c(F)c3)C(=O)O2)nn1`, the MIC in assay [1] is 2 µg/mL (≈ 4.8 µM); with Staphylococcus aureus, 2 µg/mL (≈ 4.8 µM); against Streptococcus pneumoniae, 0.5 µg/mL (≈ 1.2 µM). Also, the pKi in assay [2] was below 3.70.

Consider `O=C1O[C@@H](Cn2cc(F)nn2)CN1c1ccc(C2=CCS(=O)(=O)CC2)c(F)c1`, for which the MIC was found to be 2 µg/mL (≈ 4.87 µM) in assay [1], 1 µg/mL (≈ 2.44 µM) in the assay with Staphylococcus aureus and 0.25 µg/mL (≈ 0.609 µM) in the assay with Streptococcus pneumoniae. In assay [2], this compound showed a pKi of 6.30.

Consider `O=C1O[C@@H](Cn2cc(Br)nn2)CN1c1ccc(C2=CCS(=O)(=O)CC2)c(F)c1`, for which the MIC in assay [1] worked out at 2 µg/mL (≈ 4.24 µM); in the assay on Staphylococcus aureus, 2 µg/mL (≈ 4.24 µM); in the assay on Streptococcus pneumoniae, 0.5 µg/mL (≈ 1.06 µM). Further, the pKi in assay [2] was 4.80.

For `O=Cc1cn(C[C@H]2CN(c3ccc(C4=CCS(=O)(=O)CC4)c(F)c3)C(=O)O2)nn1`, the values for the MIC (in assay [1]; in the assay with Staphylococcus aureus; in the assay on Streptococcus pneumoniae) were 16 µg/mL (≈ 38.1 µM), 16 µg/mL (≈ 38.1 µM) and 2 µg/mL (≈ 4.76 µM), respectively. In assay [2], this compound had a negative-log Ki (pKi) of 5.49.

For `Cc1cn(C[C@H]2CN(c3ccc(C4=CCS(=O)(=O)CC4)c(F)c3)C(=O)O2)nn1`, the MIC in assay [1] came out at 2 µg/mL (≈ 4.92 µM); against Staphylococcus aureus, 1 µg/mL (≈ 2.46 µM); in the assay with Streptococcus pneumoniae it was 0.5 µg/mL (≈ 1.23 µM). In assay [2], this compound had a negative logarithm of the Ki (pKi) of 4.60.

For the compound `O=C1O[C@@H](Cn2cc(Cl)nn2)CN1c1ccc(C2=CCS(=O)(=O)CC2)c(F)c1`, the MIC in assay [1] amounted to 1 µg/mL (≈ 2.34 µM); against Staphylococcus aureus, 1 µg/mL (≈ 2.34 µM); in the assay with Streptococcus pneumoniae, 0.25 µg/mL (≈ 0.586 µM). The compound further had a pKi in assay [2] of 5.52.

With `O=C1O[C@@H](Cn2nncc2F)CN1c1ccc(C2=CCS(=O)(=O)CC2)c(F)c1`, the MIC in assay [1] amounted to 64 µg/mL (≈ 156 µM); in the assay on Staphylococcus aureus it was 32 µg/mL (≈ 78 µM); with Streptococcus pneumoniae, 8 µg/mL (≈ 19.5 µM). Further, the negative-log Ki (pKi) in assay [2] was 5.80.

On to `CC(=O)NC[C@H]1CN(c2ccc(C3=CCS(=O)(=O)CC3)c(F)c2)C(=O)O1`, for which the MIC in assay [1] came out at 1 µg/mL (≈ 2.61 µM); in the assay with Staphylococcus aureus, 1 µg/mL (≈ 2.61 µM); against Streptococcus pneumoniae, 0.25 µg/mL (≈ 0.654 µM). Further, the pKi in assay [2] was 5.23.

Take `O=C1O[C@@H](Cn2cc(/C=C/Br)nn2)CN1c1ccc(C2=CCS(=O)(=O)CC2)c(F)c1`: the MIC stood at 8 µg/mL (≈ 16.1 µM) in assay [1], 8 µg/mL (≈ 16.1 µM) in the assay on Staphylococcus aureus and 2 µg/mL (≈ 4.02 µM) in the assay with Streptococcus pneumoniae. In assay [2], the pKi is below 3.70.

As for `O=C1O[C@@H](Cn2ccnn2)CN1c1ccc(C2=CCS(=O)(=O)CC2)c(F)c1`, the MIC in assay [1] stood at 2 µg/mL (≈ 5.1 µM); with Staphylococcus aureus, 1 µg/mL (≈ 2.55 µM); against Streptococcus pneumoniae, 0.5 µg/mL (≈ 1.27 µM). In assay [2], this compound showed a pKi of 5.47.

With `O=C1O[C@@H](Cn2cc(COP(=O)(Oc3ccccc3)Oc3ccccc3)nn2)CN1c1ccc(C2=CCS(=O)(=O)CC2)c(F)c1`, the MIC was 64 µg/mL (≈ 97.8 µM) in assay [1], 32 µg/mL (≈ 48.9 µM) against Staphylococcus aureus and 4 µg/mL (≈ 6.11 µM) in the assay with Streptococcus pneumoniae. In addition, the pKi in assay [2] is below 4.00.

For `N#CCc1cn(C[C@H]2CN(c3ccc(C4=CCS(=O)(=O)CC4)c(F)c3)C(=O)O2)nn1`, the MIC in assay [1] was 2 µg/mL (≈ 4.64 µM); with Staphylococcus aureus, 16 µg/mL (≈ 37.1 µM); against Streptococcus pneumoniae it was 1 µg/mL (≈ 2.32 µM). Besides, the pKi in assay [2] is below 3.70.

With `CC(C)(C)OC(=O)c1cn(C[C@H]2CN(c3ccc(C4=CCS(=O)(=O)CC4)c(F)c3)C(=O)O2)nn1`, the MIC (in assay [1]; in the assay with Staphylococcus aureus; in the assay with Streptococcus pneumoniae) was above 64 µg/mL each time. Further, the pKi in assay [2] was 5.46.

On to `CC(C)c1cn(C[C@H]2CN(c3ccc(C4=CCS(=O)(=O)CC4)c(F)c3)C(=O)O2)nn1`, for which the MIC in assay [1] was found to be 32 µg/mL (≈ 73.6 µM); in the assay on Staphylococcus aureus, 8 µg/mL (≈ 18.4 µM); in the assay with Streptococcus pneumoniae, 4 µg/mL (≈ 9.21 µM). This compound also showed a negative-log Ki (pKi) in assay [2] of 3.99.

Turning to `Cc1cnnn1C[C@H]1CN(c2ccc(C3=CCS(=O)(=O)CC3)c(F)c2)C(=O)O1`, the MIC in assay [1] was above 64 µg/mL; in the assay with Staphylococcus aureus, above 64 µg/mL; against Streptococcus pneumoniae it was 64 µg/mL (≈ 157 µM). For the same compound, the pKi in assay [2] was 5.35.

Turning to `C[Si](C)(C)C#Cc1cn(C[C@H]2CN(c3ccc(C4=CCS(=O)(=O)CC4)c(F)c3)C(=O)O2)nn1`, the figures for the MIC (in assay [1]; against Staphylococcus aureus; against Streptococcus pneumoniae) were above 64 µg/mL, above 64 µg/mL and 1 µg/mL (≈ 2.05 µM), respectively. This compound also had a pKi in assay [2] below 3.70.

As for `O=C1O[C@@H](Cn2cc(CO)nn2)CN1c1ccc(C2=CCS(=O)(=O)CC2)c(F)c1`, the MIC in assay [1] is 4 µg/mL (≈ 9.47 µM); in the assay with Staphylococcus aureus it was 32 µg/mL (≈ 75.8 µM); in the assay with Streptococcus pneumoniae, 2 µg/mL (≈ 4.73 µM). Also, in assay [2], the negative-log Ki (pKi) is 4.33.
